Results on four compounds are retold here after patent publication US7160875B2, “Malonamide derivatives” (priority 2003, dated 2007).

Usually IC50 stands for the concentration needed to halve the response being measured.

The experiment addresses γ-secretase (Homo sapiens, UniProt P49768). Description: in vitro γ-secretase assay (HEK293 membrane fraction, recombinant APP substrate, Abeta ELISA). It counts as biochemical. Conditions: γ-secretase inhibition; HEK293 membrane fraction solubilized in 0.25% CHAPSO, C-terminal 100 amino acids of human APP as substrate, Abeta detected by ELISA. The text has this: The activity of test compounds can be evaluated in assays which measure the proteolytic cleavage of suitable substrates by γ-secretase activity. These can be cellular assays where e.g., a substrate of the γ-secretase is fused in its cytoplasmic domain to a transcription factor. Cells are transfected with this fusion gene and a reporter gene, e.g., firefly luciferase, which expression is enhanced by the transcription factor. Cleavage of the fused substrate by γ-secretase will lead to expression of the reporter gene which can be monitored in appropriate assays. The γ-secretase activity can also be determined in cell-free in vitro […] containing the γ-secretase complex is incubated with a suitable APP-derived substrate which is cleaved to the Abeta peptides. The amount of produced peptides can be determined with specific ELISA assays. Cell lines of neuronal origin secrete Abeta peptides which can be measured with the specific ELISA assay. Treatment with compounds which inhibit γ-secretase leads to a reduction of secreted Abeta thus providing a measure of inhibition. The in vitro assay of γ-secretase activity uses a HEK293 membrane fraction as a source of γ-secretase and a recombinant APP substrate. The latter consist of the C-terminal 100 amino acids of human APP fused to a 6× Histidin tail for purification which is expressed in E. coli in a regulatable expression vector, e.g. pEt15. This recombinant protein corresponds to the truncated APP fragment which results after […] of the extracellular domain and which constitutes the γ-secretase substrate. The assay principle is described in Li Y M et al, PNAS 97(11), 6138-6143 (2000). Hek293 cells are mechanically disrupted, and the microsomal fraction is isolated by differential centrifugation. The membranes are solubilized in detergent (0.25% CHAPSO) and incubated with the APP substrate. The Abeta peptides which are produced by γ-secretase cleavage of the substrate are detected by specific ELISA assays as described (Brockhaus M et al, Neuroreport 9(7), 1481-1486 (1998).
On the technique in general: ELISA stands for enzyme-linked immunosorbent assay.
On to “5-Methyl-4-oxo-(3S)-[(2RS)-(2,2,3,3,3-pentafluoro-propylcarbamoyl)-propionylamino]-2,3,4,5-tetrahydro-benzo[b][1,4]diazepine-1-carboxylic acid cyclopropylmethyl estermalonamide [Example 106]”, for which the IC50 stood at 90 nM.

As for `CC(C(=O)NCC(F)(F)C(F)(F)F)C(=O)N[C@H]1CN(S(=O)(=O)C(F)(F)F)c2ccccc2N(C)C1=O` (mixture of isomers) [Example 95, (2RS)-Methyl-N-((3S)-1-methyl-2-oxo-5-trifluorromethanesulfonyl-2,3,4,5-tetrahydro-1H-benzo[b][1,4]diazepin-3-yl)-N′-(2,2,3,3,3-pentafluoro-propyl)-malonamide], the IC50 worked out at 71 nM.

For `CC(C(=O)NCC(F)(F)C(F)(F)F)C(=O)N[C@H]1CN(C(=O)OCC2CC2)c2ccccc2N(CC(F)(F)F)C1=O` (mixture of isomers) [Example 109, 4-Oxo-(3S)-[(2RS)-(2,2,3,3,3-pentafluoro-propylcarbamoyl)-propionylamino]-5-(2,2,2-trifluoro-ethyl)-2,3,4,5-tetrahydro-benzo[b][1,4]diazepine-1-carboxylic Acid Cyclopropylmethyl Ester], the IC50 turned out to be 48 nM.

Regarding `CC(C)(C(=O)NCC(F)(F)C(F)(F)F)C(=O)N[C@@H]1C(=O)Nc2ccccc2-c2ccccc21` [Example 67, 2,2-Dimethyl-N-((S)-6-oxo-6,7-dihydro-5H-dibenzo[b,d]azepin-7-yl)-N′-(2,2,3,3,3-pentafluoro-propyl)-malonamide], the IC50 was found to be 4 nM.
